Measured values published in ChEMBL document CHEMBL5247609, “Novel nitric oxide-releasing derivatives of pyranocarbazole as antitumor agents: Design, synthesis, biological evaluation, and nitric oxide release studies” (Eur J Med Chem, 2022).
Activity calls are given as the source filed them. The rule behind the calls is not given here.

Experiments:
MDA-MB-231 [1] = test: Induction of apoptosis in human MDA-MB-231 cells assessed as downregulation of Bcl-2 by Western blotting analysis; format: functional, cell-based; conditions: dose 0.5-2 µM
MDA-MB-231 [2] = test: Induction of apoptosis in human MDA-MB-231 cells assessed as viable cells measured at 1 uM after 48 hrs by FITC-Annexin-V and propidium iodide based flow cytometric analysis (reference value: 94.4% ); format: functional; conditions: read-out: Activity
MX1 [3] = test: Induction of morphological changes in human MX1 cells assessed as decrease in cell number at 0.5 to 2 uM measured after 24 hrs by bright field inverted microscopic analysis; format: functional, cell-based; conditions: dose 0.5-2 µM
MX1 [4] = test: Induction of apoptosis in human MX1 cells assessed as early apoptotic cells measured at 5 uM after 48 hrs by FITC-Annexin-V and propidium iodide based flow cytometric analysis (reference value: 6.30%); format: functional
HeLa = test: Antiproliferative activity against human HeLa cells assessed as reduction in cell viability after 96 hrs by MTT assay; format: functional, cell-based
MX1 [5] = test: Induction of apoptosis in human MX1 cells assessed as early apoptotic cells measured at 1 uM after 48 hrs by FITC-Annexin-V and propidium iodide based flow cytometric analysis (reference value: 6.30%); format: functional
MDA-MB-231 [6] = test: Antitumor activity against human MDA-MB-231 cells xenografted in ig dosed BALBc mouse assessed as inhibition of tumor growth administered every 3 days for 21 days; format: functional, organism-based; conditions: time 21.0 day
MX1 [7] = test: Induction of apoptosis in human MX1 cells assessed as total apoptotic cells measured at 5 uM after 48 hrs by FITC-Annexin-V and propidium iodide based flow cytometric analysis (reference value: 16.36%); format: functional
MDA-MB-231 [8] = test: Antiproliferative activity against human MDA-MB-231 cells assessed as decrease in number of colony formation at 0.25 uM measured after 14 days by crystal violet staining based analysis; format: functional, cell-based; conditions: time 14.0 day
MDA-MB-231 [9] = test: Antitumor activity against human MDA-MB-231 cells xenografted in BALBC mouse assessed as inhibition of tumor growth at 150 mg/kg, IG administered every 3 days for 21 days relative to control; format: functional; conditions: MDA-MB-231, po, 504 h, time 21 day, read-out: TGI
MX1 [10] = test: Inhibition of PI3K/Akt signaling in human MX1 cells assessed as decrease in total Akt expression level incubated for 24 hrs by Western blotting analysis; format: cell-based
MX1 [11] = test: Induction of morphological changes in human MX1 cells at 0.5 to 2 uM measured after 24 hrs by bright field inverted microscopic analysis; format: functional, cell-based; conditions: dose 0.5-2 µM
MDA-MB-231 [12] = test: Induction of cell cycle arrest in human MDA-MB-231 cells assessed as decrease in cyclin B1 expression at 0.5 to 2 uM by Western blotting analysis; format: functional, cell-based; conditions: dose 0.5-2 µM, time 24.0 hrs
MDA-MB-231 [13] = test: Induction of apoptosis in human MDA-MB-231 cells assessed as upregulation of Bax by Western blotting analysis; format: functional, cell-based; conditions: dose 0.5-2 µM
MDA-MB-231 [14] = test: Induction of apoptosis in human MDA-MB-231 cells assessed as late apoptotic cells measured at 5 uM after 48 hrs by FITC-Annexin-V and propidium iodide based flow cytometric analysis (reference value: 2.68%); format: functional
MDA-MB-231 [15] = test: Antiproliferative activity against human MDA-MB-231 cells assessed as reduction in cell viability by measuring release of nitrite at 100 uM after 180 mins by Griess reagent analysis; format: functional; conditions: 3 h
MX1 [16] = test: Induction of apoptosis in human MX1 cells assessed as late apoptotic cells measured at 5 uM after 48 hrs by FITC-Annexin-V and propidium iodide based flow cytometric analysis (reference value: 5.24%); format: functional
MDA-MB-231 [17] = test: Antitumor activity against human MDA-MB-231 cells xenografted in BALBC mouse assessed as reduction of tumor volume at 150 mg/kg, IG administered every 3 days for 21 days relative to control; format: functional; parameters: scale not given: the % may be the effect or the level left; conditions: time 21 day
MX1 [18] = test: Induction of apoptosis in human MX1 cells assessed as viable cells measured at 5 uM after 48 hrs by FITC-Annexin-V and propidium iodide based flow cytometric analysis (reference value: 88.4%); format: functional; conditions: read-out: Activity
MDA-MB-231 [19] = test: Induction of apoptosis in human MDA-MB-231 cells assessed as necrotic cells measured at 2 uM after 48 hrs by FITC-Annexin-V and propidium iodide based flow cytometric analysis (reference value: 0.253 %); format: functional
MX1 [20] = test: Induction of apoptosis in human MX1 cells assessed as viable cells measured at 0.5 uM after 48 hrs by FITC-Annexin-V and propidium iodide based flow cytometric analysis (reference value: 88.4%); format: functional; conditions: read-out: Activity
NCI-H460 = test: Antiproliferative activity against human H460 cells assessed as reduction in cell viability after 96 hrs by MTT assay; format: functional, cell-based; conditions: NCI-H460, 96 h
MDA-MB-231 [21] = test: Induction of morphological changes in human MDA-MB-231 cells at 0.5 to 2 uM measured after 24 hrs by bright field inverted microscopic analysis; format: functional, cell-based; conditions: dose 0.5-2 µM
MX1 [22] = test: Induction of apoptosis in human MX1 cells assessed as downregulation of Bcl-2 by Western blotting analysis; format: functional, cell-based; conditions: dose 0.5-2 µM
MDA-MB-231 [23] = test: Induction of apoptosis in human MDA-MB-231 cells assessed as viable cells measured at 2 uM after 48 hrs by FITC-Annexin-V and propidium iodide based flow cytometric analysis (reference value: 94.4% ); format: functional; conditions: read-out: Activity
MDA-MB-231 [24] = test: Induction of apoptosis in human MDA-MB-231 cells assessed as early apoptotic cells measured at 0.5 uM after 48 hrs by FITC-Annexin-V and propidium iodide based flow cytometric analysis (reference value: 2.71%); format: functional
MX1 [25] = test: Induction of apoptosis in human MX1 cells assessed as late apoptotic cells measured at 0.5 uM after 48 hrs by FITC-Annexin-V and propidium iodide based flow cytometric analysis (reference value: 5.24%); format: functional
MDA-MB-231 [26] = test: Induction of apoptosis in human MDA-MB-231 cells assessed as necrotic cells measured at 1 uM after 48 hrs by FITC-Annexin-V and propidium iodide based flow cytometric analysis (reference value: 0.253 %); format: functional
MX1 [27] = test: Induction of apoptosis in human MX1 cells assessed as late apoptotic cells measured at 1 uM after 48 hrs by FITC-Annexin-V and propidium iodide based flow cytometric analysis (reference value: 5.24%); format: functional
[28] = Toxicity in BALBC mouse xenografted with human MDA-MB-231 cells assessed as weight loss at 50 to 150 mg/kg, IG administered every 3 days for 21 days; format: organism-based; conditions: in vivo, po, 504 h, dose 50-150 mg/kg, time 21 day
MX1 [29] = test: Induction of cell cycle arrest in human MX1 cells assessed as accumulation of cells at G0/G1 phase at 0.5 to 2 uM measured after 24 hrs by propidium iodide staining based FACS calibur flow cytometeric analysis (reference value: 39.2%); format: functional; conditions: dose 0.5-2 µM
MX1 [30] = test: Induction of cell cycle arrest in human MX1 cells assessed as decrease in cyclin B1 expression at 0.5 to 2 uM by Western blotting analysis; format: functional, cell-based; conditions: dose 0.5-2 µM, time 24.0 hrs
MX1 [31] = test: Induction of apoptosis in human MX1 cells assessed as increase in cleaved PARP-1 expression at 0.5 to 2 uM by Western blotting analysis; format: functional, cell-based; conditions: dose 0.5-2 µM
MDA-MB-231 [32] = test: Induction of apoptosis in human MDA-MB-231 cells assessed as late apoptotic cells measured at 1 uM after 48 hrs by FITC-Annexin-V and propidium iodide based flow cytometric analysis (reference value: 2.68%); format: functional

- IC50 (HeLa): 140 nM
- IC50 (NCI-H460): 780 nM
SMILES: CC1(C)C=Cc2c(c(/C=C/C(=O)NCCOc3no[n+]([O-])c3S(=O)(=O)c3ccccc3)cc3c2[nH]c2ccc(C(C)(C)C)cc23)O1
- Activity (MDA-MB-231 [1]): Dose-Dependent Effect
- viability at 1 µM (MDA-MB-231 [2]): 91.2%
- Activity (MX1 [3]): Active
- Activity (MX1 [4]): 57.8%
- Activity (MX1 [5]): 48.2%
- Activity (MDA-MB-231 [6]): Dose-Dependent Effect
- Activity (MX1 [7]): 87.2%
- Activity (MDA-MB-231 [8]): Active
- inhibition in vivo at 150 mg/kg (MDA-MB-231 [9]): 53.6%
- inhibition (MX1 [10]): inactive
- Activity (MX1 [11]): Active
- Activity (MDA-MB-231 [12]): Active
- Activity (MDA-MB-231 [13]): Dose-Dependent Effect
- Activity (MDA-MB-231 [14]): 20.8%
- Nitrite release (MDA-MB-231 [15]): 54.7 µM
- Activity (MX1 [16]): 14.5%
- Activity (MDA-MB-231 [17]): 40%
- viability at 5 µM (MX1 [18]): 27.5%
- Activity (MDA-MB-231 [19]): 0.535%
- viability at 0.5 µM (MX1 [20]): 54.8%
- Activity (MDA-MB-231 [21]): Active
- Activity (MX1 [22]): Dose-Dependent Effect
- viability at 2 µM (MDA-MB-231 [23]): 75.9%
- Activity (MDA-MB-231 [24]): 3.12%
- Activity (MX1 [25]): 5.2%
- Activity (MDA-MB-231 [26]): 0.209%
- Activity (MX1 [27]): 8.1%
- Activity [28]: Non-Toxic
- Activity (MX1 [29]): 43.1%
- Activity (MX1 [30]): Active
- Activity (MX1 [31]): Active
- Activity (MDA-MB-231 [32]): 4.85%
